Measured values: patent US8674095B2, “Compounds for treating neuropsychiatric conditions” (Afraxis Holdings, Inc., priority 2008, dated 2014)

What was measured:
Format in all cases: biochemical
[1] = molecular target: PAK4 (Homo sapiens, UniProt O96013); assay: Z'Lyte fluorescence-based (FRET) kinase assay, PAK4; details: 5 μM ATP (Km apparent), 1 hr room temperature, 1% DMSO
Method: (§1) A fluorescence-based assay format is used to determine IC50 values of test compounds in vitro. Purified PAK kinase is incubated with ATP, and a test compound at various concentrations and a substrate peptide containing two fluorophores. In a second step, the reaction mix is incubated with a site-specific protease that cleaves non-phosphorylated but not phosphorylated substrate peptide, disrupting the FRET signal generated by the two fluorophores in the cleaved peptide (Z′Lyte™ Kinase assay platform; Life Technologies).
(§2) Reagents: 50 mM HEPES, pH 7.5; 0.01% BRIJ-35; 10 mM MgCl2; 1 mM EGTA, 2 uM substrate peptide Ser/Thr20 (proprietary Life Technologies Sequence), PAK enzyme [2.42-30.8 ng for PAK1, 0.29-6 ng for PAK2, 1.5-20 ng for PAK3 and 0.1-0.86 ng for PAK4; actual enzyme amounts depend on lot activity of the enzyme preparation]
(§3) Test compounds are dissolved in DMSO at various concentrations; the final DMSO concentration in the assay reaction is 1%.
(§4) ATP concentration at Km apparent is used in the assay [50 μM ATP for PAK1 assay, 75 μM ATP for PAK2 assay, 100 μM ATP for PAK3 assay, 5 μM ATP for PAK-4 assay] in a total assay volume of […] Assay reactions are incubated at room temperature for 1 hr. Following the kinase reaction, 5 μl of 1:256 dilution of development solution A (Life Technologies) is added and the reaction mix is incubated for an additional 1 hr at room temperature.
(§5) Plates are analyzed in a standard fluorescence plate reader (Tecan or equivalent) using an excitation wavelength of 400 nm and emission wavelengths of 445 nm and 520 nm. Inhibition of kinase reaction is determined by emission ratio=emission@445 nm/emission@520 nm

[2] = test system: PAK1, PAK2, PAK3, PAK-4; assay: PAK isoform inhibition profile of example compounds; details: classification of example compounds in the description; underlying IC50 data in Table 8
Excerpt: In some embodiments, the PAK inhibitor is a Group I PAK inhibitor that inhibits, for example, one or more Group I PAK polypeptides, for example, PAK1, PAK2, and/or PAK3. […] In some embodiments, the PAK inhibitor is a PAK2 inhibitor. In some embodiments, the PAK inhibitor is a PAK3 inhibitor. In some embodiments, the PAK inhibitor is a mixed PAK1/PAK3 inhibitor. […] In some embodiments, the PAK inhibitor is a Group II PAK inhibitor that inhibits one or more Group II PAK polypeptides, for example PAK-4, PAK5, and/or PAK6. In some embodiments, the PAK inhibitor is a PAK4 inhibitor. In some embodiments, the PAK inhibitor is a PAK5 inhibitor. In some embodiments, the PAK inhibitor is a PAK6 inhibitor.
as §1, §2, §3, §4, §5

[3] = molecular target: PAK2 (Homo sapiens, UniProt Q13177); assay: Z'Lyte fluorescence-based (FRET) kinase assay, PAK2; details: 75 μM ATP (Km apparent), 1 hr room temperature, 1% DMSO
PAK2, sequence (Q13177 whole entry): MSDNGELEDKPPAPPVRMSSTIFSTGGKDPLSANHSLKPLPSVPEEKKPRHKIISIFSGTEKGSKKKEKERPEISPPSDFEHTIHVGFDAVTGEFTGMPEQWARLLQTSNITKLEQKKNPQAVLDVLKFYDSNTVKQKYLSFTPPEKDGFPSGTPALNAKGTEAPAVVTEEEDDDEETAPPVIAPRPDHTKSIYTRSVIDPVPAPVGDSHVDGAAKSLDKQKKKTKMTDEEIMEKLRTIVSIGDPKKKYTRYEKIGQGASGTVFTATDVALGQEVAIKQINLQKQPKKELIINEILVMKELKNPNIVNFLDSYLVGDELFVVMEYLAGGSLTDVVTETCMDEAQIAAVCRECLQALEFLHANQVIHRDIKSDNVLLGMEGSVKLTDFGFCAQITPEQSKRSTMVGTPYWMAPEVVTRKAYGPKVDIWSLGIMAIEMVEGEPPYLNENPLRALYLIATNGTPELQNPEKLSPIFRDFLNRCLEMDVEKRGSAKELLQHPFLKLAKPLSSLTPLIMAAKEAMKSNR
Method: as §1, §2, §3, §4, §5

[4] = molecular target: PAK1 (Homo sapiens, UniProt Q13153); assay: Z'Lyte fluorescence-based (FRET) kinase assay, PAK1; details: 50 μM ATP (Km apparent), 1 hr room temperature, 1% DMSO
PAK1, sequence (Q13153 whole entry): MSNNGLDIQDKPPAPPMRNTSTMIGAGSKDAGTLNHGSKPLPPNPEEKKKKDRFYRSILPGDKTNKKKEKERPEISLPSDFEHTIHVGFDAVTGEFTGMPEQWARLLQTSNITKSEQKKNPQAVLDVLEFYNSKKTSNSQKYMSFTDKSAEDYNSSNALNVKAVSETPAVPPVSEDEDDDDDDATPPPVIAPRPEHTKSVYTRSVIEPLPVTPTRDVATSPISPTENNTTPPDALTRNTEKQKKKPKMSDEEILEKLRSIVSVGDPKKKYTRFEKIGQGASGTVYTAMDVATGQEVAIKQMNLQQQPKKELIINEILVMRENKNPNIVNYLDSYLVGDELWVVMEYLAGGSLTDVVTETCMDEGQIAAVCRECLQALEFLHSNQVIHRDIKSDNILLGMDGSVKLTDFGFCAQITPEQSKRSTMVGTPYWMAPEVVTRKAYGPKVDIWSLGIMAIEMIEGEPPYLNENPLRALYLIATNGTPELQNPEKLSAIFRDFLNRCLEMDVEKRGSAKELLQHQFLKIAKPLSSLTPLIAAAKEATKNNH
Method: as §1, §2, §3, §4, §5

[5] = molecular target: PAK3 (Homo sapiens, UniProt O75914); assay: Z'Lyte fluorescence-based (FRET) kinase assay, PAK3; details: 100 μM ATP (Km apparent), 1 hr room temperature, 1% DMSO
PAK3, sequence (O75914 whole entry): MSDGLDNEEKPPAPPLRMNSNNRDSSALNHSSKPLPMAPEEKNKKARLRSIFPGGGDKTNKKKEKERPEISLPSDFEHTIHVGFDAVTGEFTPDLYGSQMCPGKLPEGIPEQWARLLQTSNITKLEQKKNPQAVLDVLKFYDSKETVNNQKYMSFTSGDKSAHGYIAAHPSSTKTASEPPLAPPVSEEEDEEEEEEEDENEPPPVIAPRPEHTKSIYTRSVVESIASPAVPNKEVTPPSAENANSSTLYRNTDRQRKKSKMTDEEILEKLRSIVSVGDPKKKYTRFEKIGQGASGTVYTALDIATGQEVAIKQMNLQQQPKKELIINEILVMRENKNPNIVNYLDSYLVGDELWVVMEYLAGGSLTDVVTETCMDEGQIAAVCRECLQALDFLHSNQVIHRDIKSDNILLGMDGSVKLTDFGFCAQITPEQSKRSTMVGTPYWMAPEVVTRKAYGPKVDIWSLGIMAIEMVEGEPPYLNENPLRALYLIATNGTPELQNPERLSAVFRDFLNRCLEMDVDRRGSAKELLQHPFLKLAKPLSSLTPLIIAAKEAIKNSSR
Method: as §1, §2, §3, §4, §5

PAK4, sequence (O96013 whole entry): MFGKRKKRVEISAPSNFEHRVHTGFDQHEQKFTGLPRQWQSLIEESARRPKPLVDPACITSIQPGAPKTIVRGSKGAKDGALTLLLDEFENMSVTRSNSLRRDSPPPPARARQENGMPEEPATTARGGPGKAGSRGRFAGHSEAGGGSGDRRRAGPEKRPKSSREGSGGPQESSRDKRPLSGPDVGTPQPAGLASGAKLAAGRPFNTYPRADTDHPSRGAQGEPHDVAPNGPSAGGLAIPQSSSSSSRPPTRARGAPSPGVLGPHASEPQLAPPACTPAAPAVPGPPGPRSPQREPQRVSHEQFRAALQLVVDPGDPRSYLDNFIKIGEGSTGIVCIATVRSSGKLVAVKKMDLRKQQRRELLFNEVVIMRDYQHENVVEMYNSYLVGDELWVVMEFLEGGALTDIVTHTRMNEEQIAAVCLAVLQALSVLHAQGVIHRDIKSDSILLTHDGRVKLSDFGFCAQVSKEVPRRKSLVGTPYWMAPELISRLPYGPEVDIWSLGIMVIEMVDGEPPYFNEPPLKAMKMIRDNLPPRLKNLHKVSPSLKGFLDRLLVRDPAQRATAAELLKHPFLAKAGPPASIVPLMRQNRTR

SMILES	IC50 [1] [nM]	PAK inhibitor type (isoform profile) [2]	IC50 [3] [nM]	IC50 [4] [nM]	IC50 [5] [nM]
CN1CCN(c2ccc(Nc3ncc4ccc(=O)n(Cc5ccccc5-c5ccccc5)c4n3)cc2)CC1 [Compound 68]	1000 to 10000	inhibits all three Group I PAK isoforms (PAK1, 2 and PAK3) with equal or similar potency	< 1000	< 1000	< 1000
Cc1noc(-c2ccccc2Cn2c(=O)ccc3cnc(Nc4ccc(N5CCNCC5)c(F)c4)nc32)n1 [Compound 80]	1000 to 10000	PAK1 inhibitor	1000 to 10000	< 1000	1000 to 10000
O=c1ccc2cnc(Nc3ccc(N4CCNCC4)c(F)c3)nc2n1Cc1ccccc1-c1cccs1 [Compound 78]	< 1000	mixed PAK1/PAK2/PAK3/PAK-4 inhibitor	< 1000	< 1000	< 1000
Cc1ccc(F)cc1Cn1c(=O)ccc2cnc(Nc3ccc(N4CCN(C)CC4)cc3)nc21 [Compound 59]	< 1000	mixed PAK1/PAK-4 inhibitor	1000 to 10000	< 1000	1000 to 10000
Cc1c(F)cccc1Cn1c(=O)ccc2cnc(Nc3ccc(N4CCN(C)CC4)cc3)nc21 [Compound 49]	1000 to 10000	PAK1 inhibitor	1000 to 10000	< 1000	> 10000
O=c1ccc2cnc(Nc3ccc(N4CCNCC4)c(F)c3)nc2n1Cc1ccccc1C(F)(F)F [Compound 62]	< 1000	mixed PAK1/PAK2/PAK3/PAK-4 inhibitor	< 1000	< 1000	< 1000
CN1CCN(c2ccc(Nc3ncc4ccc(=O)n(Cc5ccccc5C5CC5)c4n3)cc2)CC1 [Compound 81, 8-(2-cyclopropylbenzyl)-2-(4-(4-methylpiperazin-1-yl)phenylamino)pyrido[2,3-d]pyrimidin-7(8H)-one]	< 1000	mixed PAK1/PAK2/PAK3/PAK-4 inhibitor	< 1000	< 1000	< 1000
CN1CCN(c2ccc(Nc3ncc4ccc(=O)n(Cc5c(F)cccc5Br)c4n3)cc2)CC1 [Compound 79]	< 1000	mixed PAK1/PAK2/PAK3/PAK-4 inhibitor	< 1000	< 1000	< 1000
CN1CCN(c2ccc(Nc3nccc(-c4ccc(NCCN)nc4)n3)cc2F)CC1 [Compound 113]	< 1000	mixed PAK1/PAK-4 inhibitor	1000 to 10000	< 1000	1000 to 10000
CN1CCN(c2ccc(Nc3ncc4ccc(=O)n(Cc5c(Cl)cccc5Cl)c4n3)cc2)CC1 [Compound 57]	< 1000	mixed PAK1/PAK2/PAK-4 inhibitor	< 1000	< 1000	1000 to 10000
COc1cc(Nc2nccc(-c3ccc(NCCN)nc3)n2)cc(OC)c1OC [Compound 95]	< 1000	–	1000 to 10000	< 1000	1000 to 10000
CN1CCN(c2ccc(Nc3ncc4ccc(=O)n(Cc5ccccc5N5CCOCC5)c4n3)cc2)CC1 [Compound 73]	< 1000	mixed PAK1/PAK2/PAK3/PAK-4 inhibitor	< 1000	< 1000	< 1000
CN1CCN(c2ccc(Nc3ncc4ccc(=O)n(CCc5ccccc5C(F)(F)F)c4n3)cc2)CC1 [Compound 66]	< 1000	mixed PAK1/PAK2/PAK-4 inhibitor	< 1000	< 1000	1000 to 10000
CN1CCN(c2cccc(Nc3nccc(-c4ccc(NCCN)nc4)n3)c2)CC1 [Compound 112]	< 1000	–	1000 to 10000	1000 to 10000	> 10000
CN1CCN(c2ccc(Nc3nccc(-c4ccc(NCCN)nc4)n3)cc2)CC1.Cl [Compound 94, N-(5-{2-[4-(4-Methyl-piperazin-1-yl)-phenylamino]-pyrimidin-4-yl}-pyridin-2-yl)-ethane-1,2-diamine hydrochloride]	< 1000	mixed PAK1/PAK-4 inhibitor	1000 to 10000	< 1000	1000 to 10000
CN1CCN(c2ccc(Nc3ncc4ccc(=O)n(Cc5c(Cl)cccc5-c5cccs5)c4n3)cc2)CC1 [Compound 83]	> 10000	–	> 10000	1000 to 10000	> 10000
CN1CCN(c2ccc(Nc3ncc4ccc(=O)n(Cc5ccccc5Br)c4n3)cc2)CC1 [Compound 27, 8-(2-bromobenzyl)-2-(4-(4-methylpiperazin-1-yl)phenylamino)pyrido[2,3-d]pyrimidin-7(8H)-one]	< 1000	mixed PAK1/PAK2/PAK3/PAK-4 inhibitor	< 1000	< 1000	< 1000
CN1CCN(c2ccc(Nc3ncc4ccc(=O)n(Cc5c(F)cccc5Cl)c4n3)cc2)CC1 [Compound 53]	< 1000	mixed PAK1/PAK2/PAK3/PAK-4 inhibitor	< 1000	< 1000	< 1000
Cc1noc(-c2ccccc2Cn2c(=O)ccc3cnc(Nc4ccc(N5CCN(C)CC5)cc4)nc32)n1 [Compound 75]	1000 to 10000	PAK1 inhibitor	1000 to 10000	< 1000	1000 to 10000
CC(c1ccccc1C(F)(F)F)n1c(=O)ccc2cnc(Nc3ccc(N4CCN(C)CC4)cc3)nc21 (stereo not shown) [Compound 70]	1000 to 10000	–	> 10000	1000 to 10000	> 10000
Cc1cccc(Cl)c1Cn1c(=O)ccc2cnc(Nc3ccc(N4CCN(C)CC4)cc3)nc21 [Compound 67]	< 1000	–	1000 to 10000	< 1000	1000 to 10000
CC(=O)N1CCN(c2ccc(Nc3nccc(-c4ccc(NCCN)nc4)n3)cc2)CC1 [Compound 115]	< 1000	–	> 10000	> 10000	> 10000
CN1CCN(c2ccc(Nc3ncc4ccc(=O)n(Cc5c(F)cccc5F)c4n3)cc2)CC1 [Compound 58]	1000 to 10000	PAK1 inhibitor	1000 to 10000	< 1000	1000 to 10000
CN1CCN(c2ccc(Nc3nccc(-c4ccc(N(C)CCN)nc4)n3)cc2)CC1 [Compound 110]	1000 to 10000	–	1000 to 10000	1000 to 10000	> 10000
CN1CCN(c2ccc(Nc3ncc4ccc(=O)n(Cc5c(Cl)cccc5Br)c4n3)cc2)CC1 [Compound 71]	< 1000	mixed PAK1/PAK2/PAK3/PAK-4 inhibitor	< 1000	< 1000	< 1000
Cc1cc(Nc2nccc(-c3ccc(NCCN4CCCCC4)nc3)n2)ccc1N1CCN(C)CC1 [Compound 107]	< 1000	–	1000 to 10000	1000 to 10000	> 10000
CN1CCN(c2ccc(Nc3ncc4ccc(=O)n(Cc5c(Cl)cccc5-c5ccccc5)c4n3)cc2)CC1 [Compound 82]	1000 to 10000	–	> 10000	1000 to 10000	> 10000
CN1CCN(c2ccc(Nc3nccc(-c4ccc(N)nc4)n3)cc2)CC1 [Compound 108]	1000 to 10000	–	1000 to 10000	1000 to 10000	> 10000
